Experimental data taken from ChEMBL document CHEMBL1133244, “Solid-phase synthesis of an arylsulfone hydroxamate library” (Bioorg Med Chem Lett, 2000).
Activity calls are given as the source filed them. The rule behind the calls is not given here.

Experiments:
Stromelysin-1 [1] = molecular target: T1, Stromelysin-1 (Homo sapiens, UniProt P08254); assay: Inhibitory activity against recombinant matrix metalloprotease-3
[2] = molecular target: T2, 72 kDa type IV collagenase (Homo sapiens, UniProt P08253); assay: Inhibitory activity against recombinant matrix metalloprotease-2
T2 sequence (P08253 whole entry): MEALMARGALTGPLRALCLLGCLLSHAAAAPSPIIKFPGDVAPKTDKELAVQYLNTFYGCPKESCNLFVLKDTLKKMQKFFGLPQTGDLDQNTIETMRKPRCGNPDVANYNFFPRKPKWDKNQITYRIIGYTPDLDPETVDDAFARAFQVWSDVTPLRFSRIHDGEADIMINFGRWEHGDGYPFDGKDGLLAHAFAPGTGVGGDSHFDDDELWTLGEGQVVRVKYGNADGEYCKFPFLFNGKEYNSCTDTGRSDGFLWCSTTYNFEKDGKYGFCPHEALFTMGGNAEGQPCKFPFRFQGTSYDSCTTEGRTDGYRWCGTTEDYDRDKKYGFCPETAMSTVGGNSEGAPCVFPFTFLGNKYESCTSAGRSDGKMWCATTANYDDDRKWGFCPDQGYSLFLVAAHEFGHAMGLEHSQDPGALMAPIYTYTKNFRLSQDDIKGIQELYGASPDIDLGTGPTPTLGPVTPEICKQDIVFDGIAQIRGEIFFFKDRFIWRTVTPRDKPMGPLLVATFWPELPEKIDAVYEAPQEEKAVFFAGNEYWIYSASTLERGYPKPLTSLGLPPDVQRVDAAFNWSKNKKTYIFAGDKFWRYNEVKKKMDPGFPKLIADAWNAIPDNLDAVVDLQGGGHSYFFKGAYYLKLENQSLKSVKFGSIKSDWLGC

Interstitial collagenase [3] = molecular target: T3, Interstitial collagenase (Homo sapiens, UniProt P03956); assay: Inhibitory activity against recombinant matrix metalloprotease-1
T3 sequence (P03956 whole entry): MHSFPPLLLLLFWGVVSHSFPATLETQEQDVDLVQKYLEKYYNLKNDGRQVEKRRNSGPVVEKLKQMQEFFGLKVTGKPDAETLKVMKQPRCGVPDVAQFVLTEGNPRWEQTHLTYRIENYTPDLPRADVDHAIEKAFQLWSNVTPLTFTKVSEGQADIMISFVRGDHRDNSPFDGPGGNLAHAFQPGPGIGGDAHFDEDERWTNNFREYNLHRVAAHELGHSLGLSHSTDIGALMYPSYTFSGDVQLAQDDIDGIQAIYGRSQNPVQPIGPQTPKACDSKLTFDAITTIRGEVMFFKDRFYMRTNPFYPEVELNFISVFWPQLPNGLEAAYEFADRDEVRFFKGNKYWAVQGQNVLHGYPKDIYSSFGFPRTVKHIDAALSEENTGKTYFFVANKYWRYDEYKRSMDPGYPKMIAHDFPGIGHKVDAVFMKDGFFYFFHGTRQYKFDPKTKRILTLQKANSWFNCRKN

[4] = molecular target: Phosphodiesterase 4 (Cavia porcellus); assay: Phosphodiesterase 4 inhibitory activity measured against guinea pig macrophage homogenate
Stromelysin-1 [5] = molecular target: T1, Stromelysin-1; assay: In vitro inhibition of human recombinant Matrix metalloprotease-3.
Interstitial collagenase [6] = molecular target: T3, Interstitial collagenase; assay: In vitro inhibition of human recombinant Matrix metalloprotease-1.
[7] = In vitro for the inhibition of TNF alpha release by human peripheral blood monocytes (PBMs); format: functional
[8] = molecular target: Disintegrin and metalloproteinase domain-containing protein 17 (Homo sapiens) (UniProt P78536); assay: Inhibitory activity against TACE
Disintegrin and metalloproteinase domain-containing protein 17 (Homo sapiens), sequence (P78536 whole entry, the tested form may be a part): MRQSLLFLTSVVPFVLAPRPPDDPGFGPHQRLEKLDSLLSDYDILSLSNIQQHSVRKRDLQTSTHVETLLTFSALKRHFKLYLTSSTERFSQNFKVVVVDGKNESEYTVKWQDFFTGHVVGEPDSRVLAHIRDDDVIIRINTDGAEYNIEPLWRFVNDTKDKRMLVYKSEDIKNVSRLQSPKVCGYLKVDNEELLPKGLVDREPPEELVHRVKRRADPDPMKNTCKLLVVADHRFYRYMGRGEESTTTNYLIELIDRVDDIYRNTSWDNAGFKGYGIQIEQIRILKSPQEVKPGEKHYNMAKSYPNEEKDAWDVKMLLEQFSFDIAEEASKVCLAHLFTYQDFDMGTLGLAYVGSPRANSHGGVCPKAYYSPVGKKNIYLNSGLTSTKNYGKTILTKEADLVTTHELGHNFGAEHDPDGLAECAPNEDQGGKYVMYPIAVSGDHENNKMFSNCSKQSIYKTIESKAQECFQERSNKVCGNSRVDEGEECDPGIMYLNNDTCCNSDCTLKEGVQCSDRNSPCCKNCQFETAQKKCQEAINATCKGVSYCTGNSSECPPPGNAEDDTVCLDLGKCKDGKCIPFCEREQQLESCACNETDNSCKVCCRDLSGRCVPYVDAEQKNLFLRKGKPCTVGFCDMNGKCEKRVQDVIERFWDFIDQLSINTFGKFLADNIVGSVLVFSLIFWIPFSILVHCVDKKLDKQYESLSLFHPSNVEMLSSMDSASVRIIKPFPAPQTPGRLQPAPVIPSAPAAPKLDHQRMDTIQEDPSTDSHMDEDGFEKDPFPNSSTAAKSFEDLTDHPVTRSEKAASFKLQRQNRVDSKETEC

[9] = molecular target: T2, 72 kDa type IV collagenase
Description: In vitro inhibition of human recombinant Matrix metalloprotease-2.

T1 sequence (P08254 whole entry): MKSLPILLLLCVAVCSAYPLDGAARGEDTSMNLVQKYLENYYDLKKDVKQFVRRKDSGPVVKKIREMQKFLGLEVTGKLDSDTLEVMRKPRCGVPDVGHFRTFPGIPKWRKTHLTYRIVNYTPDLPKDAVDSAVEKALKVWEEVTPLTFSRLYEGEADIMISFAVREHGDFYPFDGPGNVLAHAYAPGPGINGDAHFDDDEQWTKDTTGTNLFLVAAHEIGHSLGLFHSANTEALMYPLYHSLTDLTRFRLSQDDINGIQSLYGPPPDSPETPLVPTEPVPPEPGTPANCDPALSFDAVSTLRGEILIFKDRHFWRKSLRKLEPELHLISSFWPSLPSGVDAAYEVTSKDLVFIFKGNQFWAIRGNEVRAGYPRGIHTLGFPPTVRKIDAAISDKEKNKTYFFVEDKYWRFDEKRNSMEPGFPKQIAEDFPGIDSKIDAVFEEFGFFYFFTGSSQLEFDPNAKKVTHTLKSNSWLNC

Row | Compound | IC50 (Stromelysin-1 [1]) [µM] | IC50 [2] [µM] | IC50 (Interstitial collagenase [3]) [µM] | IC50 [4] [µM] | Ki (Stromelysin-1 [5]) [µM] | Ki (Interstitial collagenase [6]) [µM] | IC50 [7] [µM] | Activity [8] | Ki [9] [µM]
1 | COc1ccc(S(=O)(=O)C(CCCCc2ccc3c(c2)OCO3)CC(=O)NO)cc1OC (stereo not given) | > 10 | > 10 | > 10 | 0.0064 |  |  |  |  | 
2 | COc1ccc(S(=O)(=O)C(CCCC(=O)N(C)c2ccccc2)CC(=O)NO)cc1OC1CCCC1 (stereo not given) | > 10 | > 10 | > 10 | 0.118 |  |  |  |  | 
3 | COc1ccc(S(=O)(=O)C(CC(=O)NO)CC(C)C)cc1OC1CCCC1 (stereo not given) | > 10 | > 10 | > 10 | 0.102 |  |  |  |  | 
4 | COc1ccc(C(=O)Nc2c(Cl)cncc2Cl)cc1OC1CCCC1 |  |  |  |  |  |  | 0.005 |  | 
5 | COc1ccc(S(=O)(=O)C(CC(=O)NO)CC(C)CC(C)(C)C)cc1 (stereo not given) |  |  |  |  | 0.676 | 1.72 | 8 | inactive | 0.027
6 | COc1ccc(S(=O)(=O)C(CCC(=O)N2CCCc3ccccc32)CC(=O)NO)cc1OC1CCCC1 (stereo not given) | > 10 | > 10 | > 10 | 0.016 |  |  |  |  | 
7 | CCCCCCC(CC(=O)NO)S(=O)(=O)c1ccc(OC)c(OC2CCCC2)c1 (stereo not given) | > 10 | > 10 | > 10 | 0.0095 |  |  |  |  | 
8 | COc1ccc(S(=O)(=O)C(CCC(=O)N2CCCc3ccccc32)CC(=O)NO)cc1OC (stereo not given) | > 10 | > 10 | > 10 | 0.564 |  |  |  |  | 
9 | COc1ccc(S(=O)(=O)C(CCCC(=O)N2CCCc3ccccc32)CC(=O)NO)cc1OC (stereo not given) | > 10 | > 10 | > 10 | 0.295 |  |  |  |  | 
10 | COc1ccc(S(=O)(=O)C(CC(=O)NO)CN(C)C(=O)c2ccccc2)cc1OC1CCCC1 (stereo not given) | > 10 | > 10 | > 10 | 0.974 |  |  |  |  | 
11 | CCCC(CC(=O)NO)S(=O)(=O)c1ccc(OC)c(OC2CCCC2)c1 (stereo not given) | > 10 | > 10 | > 10 | 0.055 |  |  |  |  | 
12 | CCOC(=O)C1CCCC(C(CC(=O)NO)S(=O)(=O)c2ccc(OC)cc2)C1 (stereo not given) |  |  |  |  | 0.06 | 1.01 | 4.6 | inactive | 0.0008
13 | COc1ccc(S(=O)(=O)C(CCC(=O)N(C)c2ccccc2)CC(=O)NO)cc1OC1CCCC1 (stereo not given) | > 10 | > 10 | > 10 | 0.05 |  |  |  |  | 
14 | COc1ccc(Oc2cccc(C(CC(=O)NO)S(=O)(=O)c3ccc(OC)c(OC4CCCC4)c3)c2)cc1 (stereo not given) | > 10 | > 10 | > 10 | 0.049 |  |  |  |  | 
15 | COc1ccc(S(=O)(=O)C(CCc2ccc(OCc3ccccc3)cc2)CC(=O)NO)cc1OC (stereo not given) | > 10 | > 10 | > 10 | 0.064 |  |  |  |  | 
16 | COc1ccc(S(=O)(=O)C(CCOC(=O)N(C)c2ccccc2)CC(=O)NO)cc1OC1CCCC1 (stereo not given) | > 10 | > 10 | > 10 | 0.14 |  |  |  |  | 
17 | COc1ccc(S(=O)(=O)C(CCN(C)C(=O)OCc2ccccc2)CC(=O)NO)cc1OC1CCCC1 (stereo not given) | > 10 | > 10 | > 10 | 0.46 |  |  |  |  | 
18 | COc1ccc(S(=O)(=O)C(CCC2CCCCC2)CC(=O)NO)cc1 (stereo not given) |  |  |  |  | 0.59 | 0.4 | > 10 | inactive | 0.036
19 | COc1ccc(S(=O)(=O)C(CCc2ccc(OCc3ccccc3)cc2)CC(=O)NO)cc1OC1CCCC1 (stereo not given) | > 10 | > 10 | > 10 | 0.063 |  |  |  |  | 
20 | COc1ccc(S(=O)(=O)C(CCCC(=O)N2CCCc3ccccc32)CC(=O)NO)cc1OC1CCCC1 (stereo not given) | > 10 | > 10 | > 10 | 0.036 |  |  |  |  | 
21 | COc1ccc(S(=O)(=O)C(CCc2ccc(Oc3ccccc3)cc2)CC(=O)NO)cc1OC1CCCC1 (stereo not given) | > 10 | > 10 | > 10 | 0.032 |  |  |  |  | 
22 | COc1ccc(S(=O)(=O)C(CCN(C)C(=O)c2ccccc2)CC(=O)NO)cc1OC1CCCC1 (stereo not given) | > 10 | > 10 | > 10 | 1.04 |  |  |  |  | 
23 | CCCC(CC(=O)NO)S(=O)(=O)c1ccc(OC)c(OC)c1 (stereo not given) | > 10 | > 10 | > 10 | 5.25 |  |  |  |  | 
24 | COc1ccc(S(=O)(=O)C(CC(=O)NO)CC(C)C)cc1OC (stereo not given) | > 10 | > 10 | > 10 | > 10 |  |  |  |  | 
25 | COc1ccc(S(=O)(=O)C(CCCN2C(=O)c3ccccc3C2=O)CC(=O)NO)cc1OC1CCCC1 (stereo not given) | > 10 | > 10 | > 10 | 0.032 |  |  |  |  | 
26 | COc1ccc(S(=O)(=O)C(CCc2ccccc2)CC(=O)NO)cc1OC1CCCC1 (stereo not given) | > 10 | > 10 | > 10 | 0.031 |  |  |  |  | 
27 | COc1ccc(S(=O)(=O)C(CC(=O)NO)c2ccccc2OCc2ccccc2)cc1OC1CCCC1 (stereo not given) | > 10 | > 10 | > 10 | 1.5 |  |  |  |  | 

Second part, the compound after the results:

Row | IC50 (Stromelysin-1 [1]) [µM] | IC50 [2] [µM] | IC50 (Interstitial collagenase [3]) [µM] | IC50 [4] [µM] | Ki (Stromelysin-1 [5]) [µM] | Ki (Interstitial collagenase [6]) [µM] | IC50 [7] [µM] | Activity [8] | Ki [9] [µM] | Compound
28 |  |  |  | 0.28 | > 10 | > 10 | 0.73 | inactive | > 10 | COc1ccc(S(=O)(=O)C(CC(=O)NO)c2ccc(Oc3ccccc3)cc2)cc1 (stereo not given)
29 | > 10 | > 10 | > 10 | 0.021 |  |  |  |  |  | COc1ccc(S(=O)(=O)C(CC(=O)NO)c2ccc(OCc3ccccc3)cc2)cc1OC1CCCC1 (stereo not given)
30 |  |  |  |  | 4.42 | 1.9 | > 10 | inactive | 0.088 | COC(=O)c1ccc(C(CC(=O)NO)S(=O)(=O)c2ccc(OC)cc2)cc1 (stereo not given)
31 |  |  |  | 3.6 | > 10 | > 10 | 4.4 | inactive | > 10 | COc1ccc(S(=O)(=O)C(CC(=O)NO)c2ccc(-c3ccccc3)cc2)cc1 (stereo not given)
32 | > 10 | > 10 | > 10 | 0.26 |  |  |  |  |  | COc1ccc(S(=O)(=O)C(CC(=O)NO)c2cccc(Oc3ccccc3)c2)cc1OC1CCCC1 (stereo not given)
33 |  |  |  |  | 0.184 | 0.357 | > 10 | inactive | 0.004 | CCCCC(CC)C(CC(=O)NO)S(=O)(=O)c1ccc(OC)cc1 (stereo not given)
34 |  |  |  |  | 1.43 | > 10 | > 10 | inactive | 0.038 | COc1ccc(S(=O)(=O)C(COCc2ccccc2)CC(=O)NO)cc1 (stereo not given)
35 |  |  |  | 0.52 | > 10 | > 10 | 1.2 | inactive | > 10 | COc1ccc(S(=O)(=O)C(CC(=O)NO)c2ccc(OCc3ccccc3)cc2)cc1 (stereo not given)
36 | > 10 | > 10 | > 10 | 3.03 |  |  |  |  |  | COc1ccc(S(=O)(=O)C(CCc2ccccc2)CC(=O)NO)cc1OC (stereo not given)
37 | > 10 | > 10 | > 10 | 0.089 |  |  |  |  |  | COc1ccc(S(=O)(=O)C(CC(=O)NO)c2cccc(OCc3ccccc3)c2)cc1OC1CCCC1 (stereo not given)
38 |  |  |  |  | 0.734 | 9.59 | 1.4 | inactive | 0.031 | CCCCCCC(CC(=O)NO)S(=O)(=O)c1ccc(OC)cc1 (stereo not given)
39 |  |  |  |  |  |  | > 10 | inactive |  | COc1ccc(S(=O)(=O)C(CCCCc2ccccc2)CC(=O)NO)cc1 (stereo not given)
40 | > 10 | > 10 | > 10 | 0.014 |  |  | 0.009 | inactive |  | COc1ccc(S(=O)(=O)C(CCCc2ccccc2)CC(=O)NO)cc1OC (stereo not given)
41 | > 10 | > 10 | > 10 | 0.58 |  |  | 0.45 | inactive |  | COc1ccc(S(=O)(=O)C(CC(=O)NO)c2ccccc2)cc1OC (stereo not given)
42 |  |  |  |  | 1.39 | 2.58 | 5 | inactive | 0.044 | COc1ccc(S(=O)(=O)C(CCCc2ccccc2)CC(=O)NO)cc1 (stereo not given)
43 |  |  |  |  | 0.3 | 1.71 | > 10 | inactive | 0.008 | COc1ccc(S(=O)(=O)C(CC(=O)NO)C(C)c2ccccc2)cc1 (stereo not given)
44 |  |  |  |  | 0.404 | 4.17 | > 10 | inactive | 0.03 | CCCCC(CC(=O)NO)S(=O)(=O)c1ccc(OC)cc1 (stereo not given)
45 |  |  |  |  | 0.086 | 1.71 | > 10 | inactive | 0.008 | COc1ccc(S(=O)(=O)C(CC(=O)NO)C2CCCCC2)cc1 (stereo not given)
46 |  |  |  |  | 0.35 | 2.16 | > 10 | inactive | 0.043 | COc1ccc(S(=O)(=O)C(CCc2ccccc2)CC(=O)NO)cc1 (stereo not given)
47 |  |  |  |  | > 10 | > 10 | > 10 | inactive | > 10 | COc1ccc(S(=O)(=O)C(CC(=O)NO)c2ccc(OC(C)C)cc2)cc1 (stereo not given)
48 |  |  |  |  | 3.3 | > 10 | > 10 | inactive |  | COc1ccc(S(=O)(=O)C(CC(=O)NO)c2ccccc2)cc1 (stereo not given)
